This is an account of results in US5665735A, “Unbridged bis-aryl carbinol derivatives compositions and methods of use” (Schering Corporation, priority 1995, dated 1997).

Read-outs that look alike come from different tables or passages of the source.

One test has as its system PAF-induced bronchospasm. Kind of test: Agonist-induced bronchospasm in guinea pigs, PAF (in vivo, oral). Also on record: species or system guinea pig (male Hartley). On the procedure:
(§1) In Vivo Studies: Agonist-Induced Responses--Spasmogen-Induced Bronchospasm in Guinea Pigs
(§2) Male Hartley guinea pigs (450-550 g) were obtained from Charles River Breeding Laboratories. The animals were fasted overnight and the following day were anesthetized with 0.9 mL/kg i.p. of dilaurethane (containing 0.1 g/mL diallylbarbituric acid, 0.4 g/ml ethylurea and 0.4 g/ml urethane). The left jugular vein was cannulated for the administration of compounds. The trachea was cannulated and the animals were ventilated by a rodent respirator at 55 strokes/min. with a stroke volume of 4 mL. A side arm to the tracheal cannula was connected to a pressure transducer to obtain a continuous measure of inflation pressure. Bronchoconstriction was measured as the percent increase in inflation pressure that peaked within 5 min. after challenge with spasmogen. […] Each animal was challenged with only a single spasmogen. The effect of a compound on the bronchospasm is expressed as a percent inhibition of the increase in inflation pressure compared to the, increase in a control group.

In test [1] the test system is PAF-induced platelet aggregation. The experiment in a line: Platelet aggregation assay: inhibition of platelet aggregation induced by PAF (in vitro). Type of test: cell-based. Particulars: Homo sapiens; for IC50: read-out: PAF antagonism (in vitro) IC50; for inhibition at 0.12 µM: concentration 0.12 μM; for inhibition at 0.25 µM: concentration 0.25 μM; for inhibition at 0.5 µM: concentration 0.5 μM; for inhibition at 0.125 µM: concentration 0.125 μM; for inhibition at 5 µM: concentration 5 μM; for inhibition at 50 µM: concentration 50 μM; for inhibition at 2.5 µM: concentration 2.5 μM. On the procedure:
A. In Vitro Studies--Platelet Aggregation Assay
Platelet-activating factor (PAF) causes aggregation of platelets by a receptor-mediated mechanism. Therefore, PAF-induced platelet aggregation provides a simple and convenient assay to screen compounds for PAF antagonism.
Blood was centrifuged at 110×g for 15 min. and the supernatant platelet-rich plasma (PRP) carefully transferred into a polypropylene tube. Platelet-poor-plasma (PPP) was prepared by centrifuging PRP at 12,000×g for 2 min. PRP was used within 3 hr. of drawing the blood.
PAF was dissolved in chloroform:methanol (1:1, v/v) at a concentration of 2 mg/mL and stored at -70° C. An aliquot of this solution was transferred to a polypropylene tube and […] under a flow of nitrogen gas. […] The solution was sonicated for 5 min. This stock solution was further diluted to appropriate concentrations in Hepes-saline-BSA buffer. Collagen and adenosine diphosphate (ADP) were purchased as solutions. Test compounds were initially dissolved in dimethyl sulfoxide (DMSO) at a concentration of 50 mM and then further diluted in Hepes-saline-BSA buffer to achieve appropriate concentrations.
When an aggregating agent such as PAF is added to PRP, platelets aggregate. An aggregometer quantifies this aggregation by measuring and comparing light (infra-red) transmission through PPP and PRP. Aggregation assays were performed using a dual-channel aggregometer. PRP (0.45 ml) in aggregometer cuvettes was continually stirred (37° C.). Solutions (50 μL) of test compounds or vehicle were added to the PRP and, after incubation for 2 min., 10-15 μL aliquots of PAF solution were added to achieve a final concentration of 1-5×10^-8 M. In different experiments the aggregatory response was kept within a set limit by varying the concentration of PAF. Incubations were continued until the increase in light transmission reached a maximum (usually 2 min.). This increase in light transmission reflecting platelet aggregation is transmitted to a computer. The computer calculates the slope of transmission change, thus providing the rate of aggregation. Values for inhibition were calculated by comparing rates of aggregation obtained in the absence and the presence of the compound. For each experiment, a standard PAF antagonist such as 8-chloro-6,11-dihydro-11-(1-acetyl-4-piperidylidene)-5H-benzo[5,6]cyclohepta[1,2-b]pyridine was used as a positive control.
Compounds that inhibit PAF-induced aggregation were tested against several other aggregating agents including collagen (0.2 mg/ml) and ADP (2 μM).

Test [2] has as its system histamine-induced bronchospasm. Kind of test: Agonist-induced bronchospasm in guinea pigs, histamine (in vivo, oral). Also noted: species or system guinea pig (male Hartley). On the procedure: as §1, §2

As a reminder, the IC50 is the concentration that inhibits the measured activity by half. Consider `CCOC(=O)N1CCC(=C2c3ccc(Cl)cc3CCc3cccnc32)CC1` [Compound A, reference compound], for which the “PAF agonist bronchospasm % inhibition” value in the test on PAF-induced bronchospasm (10 mg/kg) was under 50%. Also, the IC50 in test [1] is over 50000 nM. The “Histamine agonist bronchospasm % inhibition” value in test [2] (1 mg/kg) is recorded as over 50%.
Turning to `CC(=O)N1CCC(=C2c3ccc(Cl)cc3CCc3cccnc32)CC1` [Compound B, reference compound], in the test on PAF-induced bronchospasm (3 mg/kg), the “PAF agonist bronchospasm % inhibition” value is recorded as 4%. Besides, the IC50 in test [1] (in vitro, known compounds, for purposes of comparison) came to 610 nM. In test [2] (3 mg/kg), the “Histamine agonist bronchospasm % inhibition” value worked out at 48%.
In the case of `O=C(c1cc[n+]([O-])cc1)N1CCC(=C2c3ccc(Cl)cc3CCc3cccnc32)CC1` [Compound C, reference compound], the “PAF agonist bronchospasm % inhibition (duration)” value came to 37% in the test on PAF-induced bronchospasm (5 mg/kg, time 4 (unit not given)) and 12% in the test on PAF-induced bronchospasm (5 mg/kg, time 8 (unit not given)).
For `CC(=O)N1CCC(=C2c3ccc(Cl)cc3CCc3cccnc32)CC1` [Compound D, reference compound], the “PAF agonist bronchospasm % inhibition (duration)” value in the test with PAF-induced bronchospasm (15 mg/kg, time 4 (unit not given)) was determined as 61%; with PAF-induced bronchospasm (15 mg/kg, time 8 (unit not given)) it was 32%.
One may read the inhibition as how much of the control response was suppressed. A high value points to a response far below the control. Regarding `O=C(c1cc[n+]([O-])cc1)N1CCC(C(O)(c2ccccn2)c2ccccn2)CC1` [Formula 1.0A1], the “PAF agonist bronchospasm % inhibition” value in the test on PAF-induced bronchospasm (3 mg/kg) is reported as 93%. In test [1], this compound had an inhibition at 0.12 µM of 28%, an inhibition at 0.25 µM of 68% and an inhibition at 0.5 µM of 97%.
In the case of `O=C(c1cc[n+]([O-])cc1)N1CCC(C(O)(c2ccc(Cl)cc2)c2ccccn2)CC1` (centres unmarked) [Formula 1.0A3], the “PAF agonist bronchospasm % inhibition” value in the test on PAF-induced bronchospasm (3 mg/kg) amounted to 87%. Also, in test [1] (concentration 0.063 μM), the inhibition at 0.063 µM came out at 41%. In test [1], this compound returned an inhibition at 0.125 µM of 53%, an inhibition at 0.25 µM of 69%, an inhibition at 0.5 µM of 88% and an inhibition at 5 µM of 95%. In test [1], the inhibition at 50 µM came to 92%.
Regarding `[O-][n+]1ccc(CN2CCC(C(O)(c3ccccc3)c3cccs3)CC2)cc1` (centres unmarked) [Formula 1.0A5], the “PAF agonist bronchospasm % inhibition” value in the test on PAF-induced bronchospasm (3 mg/kg) is listed as 20%. In test [1], testing at 0.12 µM gave an inhibition of 35%, testing at 0.25 µM gave an inhibition of 41%, testing at 0.5 µM gave an inhibition of 59% and the inhibition at 2.5 µM was found to be 91%. The inhibition at 1.2 µM in test [1] (concentration 1.2 μM) is 81%.
Turning to `O=C(c1cc[n+]([O-])cc1)N1CCC(C(O)(c2ccc(Cl)cc2)c2cccs2)CC1` (centres unmarked) [Formula 1.0A8], the “PAF agonist bronchospasm % inhibition” value in the test on PAF-induced bronchospasm (3 mg/kg) came to 0%. In test [1], this compound registered an inhibition at 0.5 µM of 74%, an inhibition at 2.5 µM of 55%, an inhibition at 5 µM of 100% and an inhibition at 50 µM of 89%. In test [1] (concentration 1.25 μM), this compound returned an inhibition at 1.25 µM of 26%.
In test [1], `[O-][n+]1ccc(CN2CCC(C(O)(c3ccc(Cl)cc3)c3cccs3)CC2)cc1` (centres unmarked) [Formula 1.0A9] displayed an inhibition at 5 µM of 24% and an inhibition at 50 µM of 100%.
As for `O=C(c1cc[n+]([O-])cc1)N1CCC(C(O)(c2ccc(Cl)cc2)c2nccs2)CC1` (stereo not drawn) [Formula 1.0A10, α-(4-chlorophenyl)-1-(4-pyridinylcarbonyl)-α-(2-thiazolyl)-4-piperidinemethanol N^1-oxide], the “PAF agonist bronchospasm % inhibition” value with PAF-induced bronchospasm (3 mg/kg) was determined as 93%. Besides, the “PAF agonist bronchospasm % inhibition (duration)” value with PAF-induced bronchospasm (4 mg/kg, time 6 (unit not given)) is recorded as 99%. In test [1], this compound registered an inhibition at 0.125 µM of 52%, an inhibition at 0.25 µM of 67%, an inhibition at 0.5 µM of 88% and an inhibition at 5 µM of 92%. In addition, in test [1], at 50 µM the inhibition was 86%. Also, in test [2] (10 mg/kg), the “Histamine agonist bronchospasm % inhibition” value came to 12%.
Regarding `[O-][n+]1ccc(CN2CCC(C(O)(c3ccc(Cl)cc3)c3nccs3)CC2)cc1` (centres unmarked) [Formula 1.0A11], in test [1], the inhibition at 0.5 µM worked out at 7%, the inhibition at 5 µM was 76% and the inhibition at 50 µM was determined as 83%.
As for `O=C(c1cc[n+]([O-])cc1)N1CCC(C(O)(c2ccccn2)c2nccs2)CC1` (centres unmarked) [Formula 1.0A12], in test [1], the inhibition at 0.25 µM stood at 47%, at 0.5 µM the inhibition was 58%, at 5 µM the inhibition was 98% and the inhibition at 50 µM turned out to be 100%.
